Data: the NIST ThermoML archive (doi:10.1016/j.fluid.2015.05.009)

How the values were obtained:
[1] = refractive index (Na D-line) (dimensionless); conditions: 101.33 kPa, Liquid, Standard Abbe refractometry
[2] = for viscosity / mass density: 101.33 kPa, Liquid; for viscosity: Concentric cylinders viscometry; for mass density: Vibrating tube method; for surface tension liquid-gas: Pendant drop shape

CC(C)C[P+](C)(CC(C)C)CC(C)C.Cc1ccc(S(=O)(=O)[O-])cc1 [triisobutylmethylphosphonium p-toluenesulfonate]
Conditions	mass density, [2] [kg/m3]	refractive index, [1]	surface tension liquid-gas, [2] [mN/m]	viscosity, [2] [mPa·s]
283.15 K	1082.4	1.52489	–	21829
288.15 K	1079.3	1.52338	–	11305
293.15 K	1076.2	1.5217	–	6231.9
293.2 K	–	–	38.1	–
298.15 K	1073.2	1.5203	–	3612.4
298.2 K	–	–	37.3	–
303.15 K	1070.1	1.51828	–	2199.9
303.2 K	–	–	36.6	–
308.15 K	1067	1.51635	–	1397.3
313.1 K	–	–	35.5	–
313.15 K	1064	1.51433	–	917.9
318.15 K	1060.9	1.51233	–	623.7
323.1 K	–	–	35	–
323.15 K	1057.7	1.51055	–	436.2
328.15 K	1054.7	1.50872	–	313.1
333.1 K	–	–	34.3	–
333.15 K	1051.8	1.50698	–	230.1
338.15 K	1048.8	1.50537	–	172.7
343.15 K	1045.9	1.50391	–	132.1
348.15 K	1043.1	1.50252	–	102.8
353.15 K	1040.2	1.50124	–	81.3

CCCC[P+](CC)(CCCC)CCCC.CCOP(=O)([O-])OCC [tributylethylphosphonium diethylphosphate]
Conditions	mass density, [2] [kg/m3]	refractive index, [1]	surface tension liquid-gas, [2] [mN/m]	viscosity, [2] [mPa·s]
283.15 K	1021.5	1.47176	–	1018.4
288.15 K	1018	1.46996	–	669.5
293.15 K	1014.4	1.46809	–	466.4
293.2 K	–	–	31.4	–
298.15 K	1010.9	1.46618	–	316.8
298.2 K	–	–	30.5	–
303.15 K	1007.5	1.46474	–	226.7
303.2 K	–	–	29.8	–
308.15 K	1004.1	1.46308	–	166
313.1 K	–	–	29.2	–
313.15 K	1000.7	1.4611	–	124.7
318.15 K	997.6	1.45923	–	94.6
323.1 K	–	–	28.5	–
323.15 K	994.3	1.45738	–	73.4
328.15 K	990.9	1.45563	–	57.9
333.1 K	–	–	27.5	–
333.15 K	987.6	1.45385	–	46.4
338.15 K	984.3	1.45212	–	37.5
343.1 K	–	–	31.4	–
343.15 K	980.9	1.45045	–	30.8
348.15 K	977.6	1.4488	–	25.6
353.15 K	974.3	1.44718	–	21.6

CCCCCCCC[P+](CCCCCCCC)(CCCCCCCC)CCCCCCCC.[Br-] [tetraoctylphosphonium bromide]
Conditions	mass density, [2] [kg/m3]	refractive index, [1]	surface tension liquid-gas, [2] [mN/m]	viscosity, [2] [mPa·s]
318.1 K	–	–	27.4	–
318.15 K	945	1.48262	–	376.5
323.1 K	–	–	27.1	–
323.15 K	942	1.48092	–	289.9
328.15 K	938.9	1.47916	–	226.4
333.1 K	–	–	26.6	–
333.15 K	935.9	1.47699	–	178.7
338.15 K	932.9	1.47523	–	142.1
343.1 K	–	–	26	–
343.15 K	929.8	1.47354	–	114.4
348.15 K	926.8	1.47195	–	93.4
353.15 K	923.7	1.47035	–	76.8

CCCC[P+](C)(CCCC)CCCC.COS(=O)(=O)[O-] [tributylmethylphosphonium methyl sulfate]
Conditions	mass density, [2] [kg/m3]	refractive index, [1]	surface tension liquid-gas, [2] [mN/m]	viscosity, [2] [mPa·s]
283.15 K	1076.5	1.48038	–	6214.1
288.15 K	1073.4	1.47891	–	3840.1
293.15 K	1070.3	1.47742	–	2476.4
293.2 K	–	–	35.5	–
298.15 K	1067.2	1.47632	–	1629.2
298.2 K	–	–	34.7	–
303.15 K	1064.1	1.47427	–	1109.1
303.2 K	–	–	34.1	–
308.15 K	1061	1.47232	–	774.5
313.1 K	–	–	33.5	–
313.15 K	1057.9	1.47072	–	555
318.15 K	1054.8	1.46912	–	403.6
323.1 K	–	–	32.9	–
323.15 K	1051.8	1.46758	–	300
328.15 K	1048.9	1.46603	–	227
333.1 K	–	–	32.2	–
333.15 K	1045.9	1.46457	–	174.7
338.15 K	1043	1.46318	–	136.3
343.15 K	1040.1	1.46185	–	107.9
348.15 K	1037.3	1.46067	–	86.4
353.15 K	1034.4	1.45965	–	70
